Reference: patent publication US20210198277A1, “AMINE-SUBSTITUTED ARYL OR HETEROARYL COMPOUNDS” (Epizyme, Inc., priority 2016, published 2021)

Target: T1, EHMT2 (Homo sapiens, UniProt Q96KQ7)
T1 construct: host or cells: MDA-MB-231
T1 sequence (Q96KQ7 1-1210): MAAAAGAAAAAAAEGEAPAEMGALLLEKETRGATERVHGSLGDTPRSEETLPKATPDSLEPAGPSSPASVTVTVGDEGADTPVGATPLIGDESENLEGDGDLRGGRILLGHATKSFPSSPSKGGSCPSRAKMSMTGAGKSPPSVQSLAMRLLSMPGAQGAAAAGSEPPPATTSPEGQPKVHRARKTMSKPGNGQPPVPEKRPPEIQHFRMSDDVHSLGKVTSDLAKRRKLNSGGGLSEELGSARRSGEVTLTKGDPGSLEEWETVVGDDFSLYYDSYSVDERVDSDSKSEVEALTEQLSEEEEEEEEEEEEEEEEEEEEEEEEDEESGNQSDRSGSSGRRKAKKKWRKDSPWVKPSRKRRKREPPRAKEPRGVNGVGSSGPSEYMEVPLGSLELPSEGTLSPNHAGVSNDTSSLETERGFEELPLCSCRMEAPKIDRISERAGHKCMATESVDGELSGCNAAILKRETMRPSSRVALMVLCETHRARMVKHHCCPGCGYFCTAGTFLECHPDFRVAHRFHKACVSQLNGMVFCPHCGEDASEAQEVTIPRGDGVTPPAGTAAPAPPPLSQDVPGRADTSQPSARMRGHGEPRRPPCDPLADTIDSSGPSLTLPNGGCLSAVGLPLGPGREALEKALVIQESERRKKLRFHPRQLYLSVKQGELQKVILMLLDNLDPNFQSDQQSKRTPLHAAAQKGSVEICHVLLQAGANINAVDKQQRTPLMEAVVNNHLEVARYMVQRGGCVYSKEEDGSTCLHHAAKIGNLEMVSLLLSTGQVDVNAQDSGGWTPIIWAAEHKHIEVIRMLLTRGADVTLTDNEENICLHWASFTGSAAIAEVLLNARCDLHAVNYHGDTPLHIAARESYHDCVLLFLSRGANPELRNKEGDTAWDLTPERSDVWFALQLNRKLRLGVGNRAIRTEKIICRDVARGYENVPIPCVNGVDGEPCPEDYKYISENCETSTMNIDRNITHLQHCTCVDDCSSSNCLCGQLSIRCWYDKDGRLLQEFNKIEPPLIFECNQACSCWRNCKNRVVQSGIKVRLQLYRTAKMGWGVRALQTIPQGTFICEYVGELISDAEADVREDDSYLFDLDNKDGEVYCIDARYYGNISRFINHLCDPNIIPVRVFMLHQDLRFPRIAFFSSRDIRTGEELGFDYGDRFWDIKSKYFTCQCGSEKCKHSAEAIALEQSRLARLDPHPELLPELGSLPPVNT
Experiment: MDA-MB-231 H3K9me2 in-cell Western assay (EHMT2 ICW)
Type: cell-based
Conditions: Table VI; read-out: EHMT2 ICW IC50
In short: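 IC50 values came from a variable-slope four-parameter fit on triplicate wells, using % inhibition from the 800/700 nm infrared signal ratio (anti-H3K9me2 versus DRAQ5 DNA stain). Before fixation and immunostaining, MDA-MB-231 cells, 3,000 per well, were exposed to compound for 48 h at 37 °C.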

Row | SMILES | IC50 [nM]
1 | CCN1CC(COc2cc(Nc3cccn4cnnc34)ncc2OC)C1 [Compound 620] | > 10000
2 | COc1cc2c(C3CCN(C)CC3)cc(N3CCCC3)nc2cc1OCCCN1CCCC1 [Compound 625] | 100 to 1000
3 | COc1cc2c(C3CCN([C@H]4CCOC4)CC3)cc(C)nc2cc1OCCCN1CCCC1 [Compound 864] | 100 to 1000
4 | CCNc1cc(C2CCOCC2)c2cc(OC)c(OCCCN3CCCC3)cc2n1 [Compound 865] | 100 to 1000
5 | CNc1cc(C2CCN([C@@H]3CCOC3)CC2)c2cc(OC)c(OCCCN3CCCC3)cc2n1 [Compound 866] | < 100
6 | CNc1cc(C2CCN([C@H]3CCOC3)CC2)c2cc(OC)c(OCCCN3CCCC3)cc2n1 [Compound 867] | < 100
7 | CNc1cc(C)nc(Nc2ccc(OC)c(C(=O)NCc3ccccc3)c2)n1 [Compound 871] | > 10000
8 | CNc1cc(C)nc(Nc2ccc(CNC(=O)c3ccccc3)c(OC)c2)n1 [Compound 876] | > 10000
9 | CNc1cc(C)nc(Nc2ccc(C(=O)NCc3ccccc3)c(OC)c2)n1 [Compound 877] | > 10000
10 | CNc1cc(C)nc(Nc2ccc(OC)c(OCCCc3nc(Cl)c[nH]3)c2)n1 [Compound 890] | > 10000
11 | CNc1cc(C)nc(Nc2ccc(OC)c(OCCCc3nc(Cl)cn3C)c2)n1 [Compound 891] | > 10000
12 | CNC(=O)C1CCN(c2cc3nc(NC)cc(C)c3cc2OC)C1 (stereo not shown) [Compound 900] | 100 to 1000
13 | CNc1cc(C2CCOCC2)c2cc(OC)c(OCCCN3CC(O)C3)cc2n1 [Compound 902] | 100 to 1000
14 | CNc1cc(C)nc(Nc2ccc(OC)c(C#CCN3CCOCC3)c2)n1 [Compound 904] | > 10000
15 | CNc1ccnc(Nc2ccc(OC)c(OC[C@@H](O)CN3CCC3)c2)n1 [Compound 907] | 1000 to 10000
16 | CNc1ccnc(Nc2ccc(OC)c(OC[C@H](O)CN3CCC3)c2)n1 [Compound 908] | 100 to 1000
17 | CNCCCOc1cc(Nc2nccc(NC)n2)ccc1OC [Compound 916] | 1000 to 10000
18 | CNC[C@H](COc1cc(Nc2nccc(NC)n2)ccc1OC)OC [Compound 921] | > 10000

Row | SMILES | IC50 [nM]
19 | CNC[C@@H](COc1cc(Nc2nccc(NC)n2)ccc1OC)OC [Compound 922] | > 10000
20 | CCN1CC[C@@H](COc2cc(Nc3nccc(NC)n3)ccc2OC)C1 [Compound 927] | 100 to 1000
21 | CNc1ccnc(Nc2ccc(OC)c(OC[C@@H]3CCN(C4CC4)C3)c2)n1 [Compound 928] | < 100
22 | CNc1ccnc(Nc2ccc(OC)c(OC[C@H]3CN(C)CCO3)c2)n1 [Compound 931] | > 10000
23 | CCN1CCO[C@@H](COc2cc(Nc3nccc(NC)n3)ccc2OC)C1 [Compound 932] | > 10000
24 | CNc1ccnc(Nc2ccc(OC)c(OC[C@H]3CNCCO3)c2)n1 [Compound 933] | > 10000
25 | CNc1ccnc(Nc2ccc(OC)c(OC[C@@H]3CN(C)CCO3)c2)n1 [Compound 936] | > 10000
26 | CCN1CCO[C@H](COc2cc(Nc3nccc(NC)n3)ccc2OC)C1 [Compound 937] | > 10000
27 | CNc1ccnc(Nc2ccc(OC)c(OC[C@@H]3CNCCO3)c2)n1 [Compound 938] | > 10000
28 | CNc1ccnc(Nc2ccc(OC)c(OC[C@@H](C)CN3CCC3)c2)n1 [Compound 943] | 1000 to 10000
29 | CNc1ccnc(Nc2ccc(OC)c(OC[C@H](C)CN3CCC3)c2)n1 [Compound 945] | 100 to 1000
30 | CCN1CC[C@@H](COc2cc(Nc3nc(C)cc4[nH]ncc34)ncc2OC)C1 [Compound 947] | 1000 to 10000
31 | COc1cc2c(C3CCN(C)CC3)nc(N3CCCC3)nc2cc1OCCCN1CC(O)C1 [Compound 950] | 1000 to 10000
32 | CCN1CC(COc2cc3nc(NC)nc(C4CCN(C)CC4)c3cc2OC)C1 [Compound 951] | 1000 to 10000
33 | CNc1nc(C2=CC(C)(C)NC(C)(C)C2)c2cc(OC)c(OCCCN3CCCC3)cc2n1 [Compound 961] | > 10000
34 | CNCCNCc1cc(Nc2nc(C)cc(NC)n2)ccc1OC [Compound 964] | 1000 to 10000
35 | CNc1ccnc(Nc2cnc(OC)c(OC[C@@H]3CCN(C4CCC4)C3)n2)n1 [Compound 974] | 100 to 1000
36 | CNc1cc(C)nc(Nc2ccc(OC)c(OC[C@H](O)CN3CC(C)C3)c2)n1 [Compound 985] | 100 to 1000

The next lines start with the values.

Row | IC50 [nM] | SMILES
37 | 100 to 1000 | CNc1cc(C)nc(Nc2ccc(OC)c(OCC(O)CN3CCCC3)c2)n1 (stereo in doubt) [Compound 906, (2S)-1-(2-methoxy-5-[[4-methyl-6-(methylamino)pyrimidin-2-yl]amino]phenoxy)-3-(pyrrolidin-1-yl)propan-2-ol]
38 | > 10000 | COc1cnc(Nc2cccc3[nH]nnc23)cc1OCCCN1CCCC1 [Compound 619]
39 | > 10000 | CNc1cc(C)nc(Nc2c[nH]c(=O)c(OCCCN3CCCC3)c2)n1 [Compound 621]
40 | > 10000 | CNc1cc(C)nc(Nc2cc(OCCCN3CCCC3)c3nncn3c2)n1 [Compound 622]
41 | 1000 to 10000 | CNc1cc(C)nc(Nc2cc(OCCCN3CCCC3)c3ncnn3c2)n1 [Compound 623]
42 | 1000 to 10000 | CNc1cc(C)nc(Nc2cc(OCCCN3CCCC3)c3[nH]nnc3c2)n1 [Compound 624]
43 | > 10000 | COc1ccc(Nc2nc(C)cc(C3CCOCC3)n2)cc1OCCCN1CCCC1 [Compound 870]
44 | > 10000 | CNc1cc(C)nc(Nc2ccc(OC)c(C(=O)NC3CCN(C)CC3)c2)n1 [Compound 873]
45 | 100 to 1000 | CNc1cc(C)nc(Nc2cnc(OC)c(OC[C@@H](O)CN3CCCC3)c2)n1 [Compound 881]
46 | 1000 to 10000 | CNc1cc(C)nc(Nc2cnc(OC)c(OC[C@H](O)CN3CCCC3)c2)n1 [Compound 882]
47 | > 10000 | COc1ncc(Nc2nc(C)cc(NCC3COC3)n2)cc1OC[C@@H](O)CN1CCCC1 [Compound 883]
48 | > 10000 | COc1ncc(Nc2nc(C)cc(NCC3COC3)n2)cc1OC[C@H](O)CN1CCCC1 [Compound 884]
49 | > 10000 | CNc1cc(C)nc(Nc2cc(OC[C@@H](O)CN3CCCC3)c(OC)cn2)n1 [Compound 885]
50 | > 10000 | CNc1cc(C)nc(Nc2cc(OC[C@H](O)CN3CCCC3)c(OC)cn2)n1 [Compound 886]
51 | 1000 to 10000 | CNC(=O)CCNc1cc(C)nc(Nc2cnc(OC)c(OCCCN3CCCC3)c2)n1 [Compound 887]
52 | > 10000 | CNC(=O)N1CC(CNc2cc(C)nc(Nc3cnc(OC)c(OCCCN4CCCC4)c3)n2)C1 [Compound 888]
53 | 1000 to 10000 | CNS(=O)(=O)CCNc1cc(C)nc(Nc2ccc(OC)c(OCCCN3CCCC3)c2)n1 [Compound 892]

Row | IC50 [nM] | SMILES
54 | 100 to 1000 | COc1ccc(Nc2nc(C)cc(NCCS(=O)(=O)N(C)C)n2)cc1OCCCN1CCCC1 [Compound 893]
55 | > 10000 | COc1cnc(Nc2cc(NCC3COC3)cnn2)cc1OCCCN1CCCC1 [Compound 894]
56 | > 10000 | COc1cc2cc(C#N)c(C)nc2cc1OCCCN1CCCC1 [Compound 895]
57 | > 10000 | COc1cc2cc(F)c(C)nc2cc1OCCCN1CCCC1 [Compound 896]
58 | > 10000 | CNc1nc2cc(OCCCN3CCCC3)c(OC)cc2cc1F [Compound 897]
59 | 1000 to 10000 | CNc1nc2cc(OCCCN3CCCC3)c(OC)cc2cc1Cl [Compound 903]
60 | 100 to 1000 | CNc1cc(C)nc(Nc2ccc(OC)c(OC[C@@H](O)CN3CCCC3)c2)n1 [Compound 905]
61 | 100 to 1000 | CNc1ccnc(Nc2cnc(OC)c(OC[C@@H]3CCN(C)C3)c2)n1 [Compound 912]
62 | 100 to 1000 | CNc1ccnc(Nc2cnc(OC)c(OCCCN3CCC3)c2)n1 [Compound 914]
63 | 1000 to 10000 | CNCCCOc1cc(Nc2nccc(NC)n2)cnc1OC [Compound 917]
64 | 1000 to 10000 | CNC[C@@H](O)COc1cc(Nc2nccc(NC)n2)cnc1OC [Compound 918]
65 | > 10000 | CNc1ccnc(Nc2ccc(OC)c(OC[C@@H](CN3CCCC3)OC)c2)n1 [Compound 919]
66 | 100 to 1000 | CNc1ccnc(Nc2ccc(OC)c(OC[C@H](CN3CCCC3)OC)c2)n1 [Compound 920]
67 | 100 to 1000 | CNc1cc(C)nc(Nc2cnc(OC)c(OCCCN3CCC3)c2)n1 [Compound 949]
68 | 1000 to 10000 | CNc1cc(C)nc(Nc2ccc(OC)c(OC[C@H](O)CNC3CCC3)c2)n1 [Compound 962]
69 | 100 to 1000 | CNc1cc(C)nc(Nc2cnc(OC)c(OC[C@H](O)CN3CCC3)c2)n1 [Compound 963]
70 | < 100 | CNc1cc(C)nc(Nc2ccc(OC)c(CNCCN3CCC3)c2)n1 [Compound 965]
